Source: patent US8952033B2, “4-anilinofuro[2,3-b]quinoline derivatives, their preparation processes, and pharmaceutical compositions comprising the same” (Kaohsiung Medical University, priority 2011, dated 2015)
Converted amounts (≈) assume the structure as drawn.

Key:
[1] = tested on: MCF-7 (breast cancer cell); assay: MTT antiproliferative assay (cell growth %, GI50), MCF-7; assay type: cell-based
Outline: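 Cells exposed to compounds in DMSO or vehicle for 48 hours; MTT (2 mg/mL) added before and after treatment for 2 hours, formazan dissolved in DMSO and OD570 read. GI50 from three determinations, reported as mean±SD.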

[2] = tested on: SF-268 (central nervous system carcinoma cell); assay: MTT antiproliferative assay (cell growth %, GI50), SF-268; assay type: cell-based
Method: (§1) Antiproliferative activities of the compounds of this invention were evaluated substantially according to the method as described in Tseng, C. […] The cells were treated with the test compounds, i.e., the compounds of this invention (in dimethylsulfoxide (DMSO)), or DMSO for 48 hours.
(§2) Before and after the treatment with the test compounds or DMSO, 3-(4,5-dimethylthiazol-2-yl)-2,5-diphenyltetrazolium bromide (MTT, 2 mg/mL, 100 μL) was added to each of the cultures, followed by cultivation for 2 hours. The resultant formazan was dissolved by the addition of DMSO. Absorbance at 570 nm (OD570) was measured using a microtiter plate reader (Dynex MRX-II).
(§3) Determination of GI50 was conducted thrice for each test compound. GI50 is expressed as mean±SD.

[3] = tested on: MRC-5 (human lung fibroblast cell); assay: GI50 determination on normal cell line MRC-5; assay type: cell-based; details: MRC5, normal cell line, mean±SD, read-out: GI50 MRC-5
Method: as §1, §2, §3

[4] = tested on: RCC 786-O (renal cell carcinoma cell); assay: Preferential antiproliferative activity, RCC 786-O; assay type: cell-based
Method: (§4) Determination of GI50 of compounds 13a, 13c, 14a, 14c, 15a, 16a was conducted substantially according to the method as described in the preceding section A entitled “Evaluation of antiproliferative activity”, except that the normal cell line MRC-5 was also utilized, and that camptothecin and daunorubicin were tested instead of compounds 1, 2, 3. The concentration of the respective test compound, which can reduce absorbance by 50% (compared with DMSO), is regarded as GI50, and can be determined via dose-response curves. Determination of GI50 was conducted thrice for each test compound. GI50 is expressed as mean±SD.
(§5) SI stands for selectivity index and was calculated by substituting GI50 into the following formula: D=E/F (2) where • D=SI • E=GI50 of the respective test compound for cells of the normal cell line • F=GI50 of the respective test compound for cells of the cancer cell line The experimental results are summarized in Table 4. […]

[5] = tested on: AGS (human stomach adenocarcinoma cell); assay: Preferential antiproliferative activity, AGS; assay type: cell-based
Method: as §4, §5

[6] = tested on: PC-3 (human prostate cancer cell); assay: Preferential antiproliferative activity, PC-3; assay type: cell-based
Method: as §4, §5

[7] = tested on: CE81T (human esophageal carcinoma cell); assay: Preferential antiproliferative activity, CE81T; assay type: cell-based
Method: as §4, §5

[8] = tested on: NCI-H611; assay: Preferential antiproliferative activity, NCI-H611; assay type: cell-based
Method: as §4, §5

[9] = tested on: CL1-5 (metastatic lung adenocarcinoma cell); assay: Preferential antiproliferative activity, CL1-5; assay type: cell-based
Method: as §4, §5

[10] = Determination of solubility in water; assay type: physicochemical
Method: Determination of solubility in water was conducted substantially according to the method as described in Vougogiannopoulou, K. et al. (2008), J. Med. Chem., 51:6421-6431. An excess amount of the respective test compound was added into water, followed by sonication for 5 minutes. The resultant mixture was stirred at ambient temperature (25±0.1° C.) overnight. Centrifugation at 4000 rpm and 25° C. was conducted for 5 minutes. Absorbance of the sample of the respective test compound was measured at 315-420 nm using a UV-VIS spectrophotometer (JASCO UV-Visible V570). For each test compound, a standard curve was generated by plotting concentrations of standard solutions and the corresponding absorbances. The absorbance of the sample of each test compound was then converted to solubility in water (μg/mL) using the corresponding standard curve.

Structure (SMILES): C/C(=N\OCCN)c1ccc(Nc2c3ccccc3nc3occc23)cc1 [Compound 13a, (E)-1-(4-(furo[2,3-b]quinolin-4-ylamino)phenyl)ethanone O-2-aminoethyl oxime]
- SI MCF-7 ([1]; GI50 MRC-5 / GI50 MCF-7): 4.59
- activity at 4000 µg/mL ([1]; Homo sapiens, MCF7, 4 mg/ml, 48 hours, MTT): 66%
- activity at 20000 µg/mL ([1]; Homo sapiens, MCF7, 20 mg/ml, 48 hours, MTT): -1%
- GI50 ([1]; Homo sapiens, MCF7, mean±SD, read-out: GI50 MCF-7): 9.34 ± 0.92 µM
- SI SF-268 ([2]; GI50 MRC-5 / GI50 SF-268): 6.84
- GI50 ([2]; Homo sapiens, SF-268, mean±SD, read-out: GI50 SF-268): 6.26 ± 1.02 µM
- GI50 [3]: 42.9 ± 1.05 µM
- GI50 ([4]; Homo sapiens, 786-0, mean±SD): 24 ± 2 µM
- SI RCC 786-O ([4]; versus MRC-5): 1.77
- GI50 ([5]; Homo sapiens, mean±SD): 13.77 ± 0.04 µM
- SI AGS ([5]; versus MRC-5): 3.09
- GI50 ([6]; Homo sapiens, mean±SD): 11.8 ± 0.49 µM
- SI PC-3 ([6]; versus MRC-5): 3.62
- GI50 ([7]; Homo sapiens, CE81T, mean±SD): 16.9 ± 1.88 µM
- SI CE81T ([7]; versus MRC-5): 2.53
- GI50 ([8]; mean±SD): 0.98 ± 0.27 µM
- SI NCI-H611 ([8]; versus MRC-5): 43.72
- GI50 ([9]; CL1-5, result based on a single trial): 5.18 µM
- SI CL1-5 ([9]; versus MRC-5): 8.27
- Solubility in water ([10]; 25±0.1° C., stirred overnight, UV-VIS): 63 µg/mL (≈ 175 µM)
- Solubility in water relative to compound 2 ([10]; fold versus compound 2): about six times higher
